Results published in patent US20210378281A1, “INHIBITION OF SENSORY IRRITATION DURING CONSUMPTION OF NON-SMOKEABLE TOBACCO PRODUCTS” (priority 2010, published 2021).
Where “and” joins values, the source holds several entries; their conditions need not be identical. Equal entries are not always repeated. Entries after “also recorded” stand apart in the source; their conditions may differ.

How the values were obtained:
[1] = tested on: tongues of human volunteers; assay: pre-treatment with camphor on sensory irritation from nicotine, tongues of human volunteers; type: in vivo; settings: camphor 25, 50 or 100 ppm, 20 microliters on strip for 30 seconds before 0.1-0.3% nicotine
From the text: FIGS. 1 and 2 show the results of a study on the effect of pre-treatment with camphor on sensory irritation from nicotine. Camphor was applied to tongues of human volunteers prior to application of a nicotine solution. Randomized sides of tongues were selected for application of 20 microliters of 0 ppm, 25 ppm, 50 ppm, or 100 ppm of camphor on a strip (thus, about […], respectively) for 30 seconds. Then, the subjects sipped, rinsed, then spit 0.1%, 0.2%, or 0.3% of a nicotine solution for a 5 second application. Participants were then asked which side of the tongue has the strongest burning sensation. Responses were collected both immediately (within 5 seconds) (FIG. 1) and after 30 seconds (FIG. 2). Controls received no camphor, and a baseline was established at zero camphor.

mouth of participants = assay: threshold of irritation from camphor, oral sip and swish of camphor solution; type: in vivo, human; parameters: key to irritation felt at 200 ppm / irritation felt at 300 ppm / irritation felt at 400 ppm / irritation felt at 1000 ppm / irritation felt at 2000 ppm / irritation felt at 4000 ppm / irritation felt at 6000 ppm: Y: the participant felt irritation at the indicated concentration; N: no irritation was felt
Method: A further study was conducted to determine the threshold at which camphor itself would cause sensory irritation.
Each test used two milliliters (2 ml) of a camphor solution. The camphor was dissolved in ethanol and further diluted in water. Participants received sequentially increasing concentration of camphor. Nine participants received samples including food grade racemic camphor, with concentrations of 200, 300, 400, […] 1000, 2000, 4000, 6000 ppm (corresponding to about […] per sample, respectively).
Participants wore nose clips during evaluation. Each participant sipped the sample, swished it in the mouth for 10 seconds, then spat it out. Each participant then indicated whether irritation was perceived. Between evaluations of each sample, participants rinsed with water and waited for one minute.
The left-most column indicates the participant number of each individual participant.

[2] = tested on: mouth of subjects using oral tobacco; assay: snus pouches with camphor, perceived burning in the mouth, 2AFC design; type: in vivo, human
Method: A further study was conducted to determine if camphor affected perceived burning in the mouth of subjects using oral tobacco. Participants were given two snus pouch samples to use simultaneously, one in each side of the mouth. One sample was a control pouch with no camphor added and the other contained various concentrations of camphor ([…], based on tobacco weight, respectively). The hand-made test samples were constructed using unflavored tobacco (12% oven volatiles) to prevent any possible interference of the flavor system with the objective of the study. In preparing the pouches, the camphor was dissolved in 95% ethanol, with the control pouches receiving the ethanol only. Ten (10) microliters of one of the solutions was applied to each sample pouch (5 microliters per side). […] Responses were recorded on paper by the experimenter. […] Following each evaluation, participants were asked to give details regarding where the burning was felt and to provide any open-ended comments regarding their experience, which were recorded on paper by the experimenter. Participants repeated the sensory evaluation procedures an additional six (6) times, with a maximum of two (2) pairs being evaluated each day.

nerve fibers = settings: isolated mouse trachea model; cited from earlier work
TRPV1 receptors = settings: increasing their responsiveness; J. Neurophysiol., 91: 1482-1491, 2004; cited from earlier work
TRPA1 receptors = TRPA1 receptors (Homo sapiens, UniProt O75762); settings: cited from earlier work
TRPA1 receptors, sequence (O75762 whole entry): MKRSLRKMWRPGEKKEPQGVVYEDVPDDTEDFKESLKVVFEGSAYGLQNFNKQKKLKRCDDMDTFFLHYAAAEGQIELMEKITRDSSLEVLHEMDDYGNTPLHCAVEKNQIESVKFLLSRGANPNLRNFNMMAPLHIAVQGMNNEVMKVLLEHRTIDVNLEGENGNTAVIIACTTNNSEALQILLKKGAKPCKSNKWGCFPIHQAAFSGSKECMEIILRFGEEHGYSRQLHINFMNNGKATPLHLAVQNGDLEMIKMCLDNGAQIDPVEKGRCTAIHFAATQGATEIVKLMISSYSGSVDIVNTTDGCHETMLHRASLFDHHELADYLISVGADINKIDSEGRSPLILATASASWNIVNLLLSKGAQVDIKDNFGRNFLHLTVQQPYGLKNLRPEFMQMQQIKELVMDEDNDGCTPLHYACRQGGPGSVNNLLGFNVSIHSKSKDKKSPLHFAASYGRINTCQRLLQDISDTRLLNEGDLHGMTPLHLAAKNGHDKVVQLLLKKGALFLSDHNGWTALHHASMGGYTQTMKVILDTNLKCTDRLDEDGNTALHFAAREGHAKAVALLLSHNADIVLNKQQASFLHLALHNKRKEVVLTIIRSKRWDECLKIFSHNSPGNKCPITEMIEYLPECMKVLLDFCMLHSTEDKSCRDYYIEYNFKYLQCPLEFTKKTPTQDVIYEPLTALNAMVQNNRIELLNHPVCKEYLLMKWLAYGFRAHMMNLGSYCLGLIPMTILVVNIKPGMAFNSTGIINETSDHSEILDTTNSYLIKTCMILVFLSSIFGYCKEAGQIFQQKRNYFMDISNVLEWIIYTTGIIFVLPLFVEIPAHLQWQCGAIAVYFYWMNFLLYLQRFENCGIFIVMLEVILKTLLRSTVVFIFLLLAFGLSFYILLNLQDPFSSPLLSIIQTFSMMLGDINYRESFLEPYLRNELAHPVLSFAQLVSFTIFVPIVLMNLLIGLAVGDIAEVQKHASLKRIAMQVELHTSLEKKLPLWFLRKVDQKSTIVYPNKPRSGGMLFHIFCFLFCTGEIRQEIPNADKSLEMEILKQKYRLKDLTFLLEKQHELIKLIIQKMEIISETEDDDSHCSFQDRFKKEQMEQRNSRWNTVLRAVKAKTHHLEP

SMILES | perceived burning from nicotine, 30 seconds after initial exposure ([1]; response after 30 seconds) | perceived burning from nicotine, immediately ([1]; response immediately (within 5 seconds)) | irritation felt at 200 ppm (mouth of participants; 200 ppm camphor, 2 ml solution, swished 10 seconds, one line per participant) | irritation felt at 300 ppm (mouth of participants; 300 ppm camphor, 2 ml solution, swished 10 seconds, one line per participant) | irritation felt at 400 ppm (mouth of participants; 400 ppm camphor, 2 ml solution, swished 10 seconds, one line per participant) | irritation felt at 1000 ppm (mouth of participants; 1000 ppm camphor, 2 ml solution, swished 10 seconds, one line per participant) | irritation felt at 2000 ppm (mouth of participants; 2000 ppm camphor, 2 ml solution, swished 10 seconds, one line per participant) | irritation felt at 4000 ppm (mouth of participants; 4000 ppm camphor, 2 ml solution, swished 10 seconds, one line per participant) | irritation felt at 6000 ppm (mouth of participants; 6000 ppm camphor, 2 ml solution, swished 10 seconds, one line per participant) | concentration at which a few participants were sensitive (mouth of participants; a few participants, sensitive only at higher concentrations) | concentration at which most participants perceived tingling (mouth of participants; most participants) | mean threshold for producing irritation (mouth of participants; n=9) [ppm] | Notes (sensation described by participant) (mouth of participants; one line per participant, concentrations in ppm) | time at which the effect was strongest ([2]; 12 nanogram (50 ppm) camphor pouch, asked at 2, 5 and 10 minutes) [min] | reduction of oral burning from snus pouch ([2]; 12 nanogram (corresponding to 50 ppm) camphor per pouch versus control pouch) | inhibition of activation of nerve fibers induced by the nicotinic agonist nicotine (nerve fibers) | sensitization of TRPV1 receptors (TRPV1 receptors) | sensitization of TRPA1 receptors (TRPA1 receptors)
CC12CCC(CC1=O)C2(C)C (racemic) [camphor] | significantly reduced perceived burning from nicotine | significantly reduced perceived burning from nicotine | Y (3×) and N (6×) | Y (3×) and N (6×) | Y (4×) and N (4×) | N and Y (2×) | Y | Y | Y | 1000-2000 ppm | 200-300 ppm | 655 | Tingling at 300, tingling no burning; also recorded: No Burning, slight tingling on edges; also recorded: Some burning and stinging at 200, | 10 | most effective in reducing oral burning | effectively inhibit activation of nerve fibers |  | 
CN1CCCC1c1cccnc1 (stereo not drawn) [nicotine] |  |  |  |  |  |  |  |  |  |  |  |  |  |  |  |  | sensitize TRPV1 receptors | as well as TRPA1 receptors
